Laboratory results as given in patent US8173808B2, “Substituted naphthalenyl-pyrimidine compounds” (ArQule, Inc., priority 2009, dated 2012).
Where a name gives a salt, the structure may show the parent alone.

tested on: not given; experiment: not given; settings: not given

Row | SMILES | melting point [°C]
1 | COc1cccc(CNc2nccc(-c3cc(N4CCN(CCCN5CCCCC5)CC4)c4cc(OC)ccc4c3)n2)c1 [Compound 194, 4-(6-methoxy-4-(4-(3-(piperidin-1-yl)propyl)piperazin-1-yl)naphthalen-2-yl)-N-(3-methoxybenzyl)pyrimidin-2-amine] | 63 to 75
2 | COCCCNc1nccc(-c2cc(N3CCN(c4ncnc5[nH]nc(Br)c45)CC3)c3cc(OC)ccc3c2)n1 [Compound 177, 4-{4-[4-(3-bromo-1H-pyrazolo[3,4-d]pyrimidin-4-yl)piperazin-1-yl]-6-methoxy-2-naphthyl}-N-(3-methoxypropyl)pyrimidin-2-amine] | 225 to 227
3 | CNc1nccc(-c2cc(NC(=O)c3ccc(OC)cc3)c3cc(OC)ccc3c2)n1 [Compound 188, 4-methoxy-N-{7-methoxy-3-[2-(methylamino)pyrimidin-4-yl]-1-naphthyl}benzamide] | 214 to 215
4 | COc1ccc2cc(-c3ccnc(NCCCN(C)C)n3)cc(N3CCN(c4ncnc5[nH]nc(Br)c45)CC3)c2c1 [Compound 178, N1-(4-(4-(4-(3-bromo-1H-pyrazolo[3,4-d]pyrimidin-4-yl)piperazin-1-yl)-6-methoxynaphthalen-2-yl)pyrimidin-2-yl)-N3,N3-dimethylpropane-1,3-diamine] | 152 to 155
5 | COc1ccc2cc(-c3ccnc(N(C)C)n3)cc(NC3CCN(c4ncnc5[nH]nc(Br)c45)CC3)c2c1 [Compound 144, 4-(4-((1-(3-bromo-1H-pyrazolo[3,4-d]pyrimidin-4-yl)piperidin-4-yl)amino)-6-methoxynaphthalen-2-yl)-N,N-dimethylpyrimidin-2-amine] | 167 to 172
6 | CNc1nccc(-c2cc(NC(C)=O)c3cc(OC)ccc3c2)n1 [Compound 186, N-{7-methoxy-3-[2-(methylamino)pyrimidin-4-yl]-1-naphthyl}acetamide] | 234 to 235
7 | CNc1nccc(-c2cc(NCCCSC(=N)N)c3cc(OC)ccc3c2)n1 [Compound 192, 3-({7-methoxy-3-[2-(methylamino)pyrimidin-4-yl]-1-naphthyl}amino)propyl imidothiocarbamate] | 94 to 97
8 | CCN(CC)CCCN1CCN(c2cc(-c3ccnc(NCc4cccc(OC)c4)n3)cc3ccc(OC)cc23)CC1 (as salt: hydrochloride) [Compound 197, 4-(4-(4-(3-(diethylamino)propyl)piperazin-1-yl)-6-methoxynaphthalen-2-yl)-N-(3-methoxybenzyl)pyrimidin-2-amine] | 156 to 160
9 | COc1ccc2cc(-c3ccnc(NCCCN(C)C)n3)cc(N3CCNCC3)c2c1 [Compound 114, N′-[4-(6-methoxy-4-piperazin-1-yl-2-naphthyl)pyrimidin-2-yl]-N,N-dimethylpropane-1,3-diamine] | 188 to 190
10 | COCCCNc1nccc(-c2cc(N3CCNCC3)c3cc(OC)ccc3c2)n1 [Compound 113, 4-(6-methoxy-4-piperazin-1-yl-2-naphthyl)-N-(3-methoxypropyl)pyrimidin-2-amine] | 136 to 138
11 | CCN(C)CCCN1CCN(c2cc(-c3ccnc(NCc4cccc(OC)c4)n3)cc3ccc(OC)cc23)CC1 (as salt: hydrochloride) [Compound 201, 4-(4-(4-(3-(ethyl(methyl)amino)propyl)piperazin-1-yl)-6-methoxynaphthalen-2-yl)-N-(3-methoxybenzyl)pyrimidin-2-amine] | 160 to 169
12 | CNc1nccc(-c2cc(NC(=O)c3ccc(C(C)(C)C)cc3)c3cc(OC)ccc3c2)n1 [Compound 184, 4-tert-butyl-N-{7-methoxy-3-[2-(methylamino)pyrimidin-4-yl]-1-naphthyl}benzamide] | 231 to 232
13 | CNc1nccc(-c2cc(NCCCNCCCN(C)C)c3cc(OC)ccc3c2)n1 [Compound 191, N′-[3-({7-methoxy-3-[2-(methylamino)pyrimidin-4-yl]-1-naphthyl}amino)propyl]-N,N-dimethylpropane-1,3-diamine] | 142 to 144
14 | CNc1nccc(-c2cc(NC(=O)CN(C)C)c3cc(OC)ccc3c2)n1 [Compound 137, 2-(dimethylamino)-N-(7-methoxy-3-(2-(methylamino)pyrimidin-4-yl)naphthalen-1-yl)acetamide] | 70 to 73
15 | CNc1nccc(-c2cc(NC(=O)c3ccccc3)c3cc(OC)ccc3c2)n1 [Compound 185, N-{7-methoxy-3-[2-(methylamino)pyrimidin-4-yl]-1-naphthyl}benzamide] | 201 to 203
16 | CNc1nccc(-c2cc(NC(=O)CNCCO)c3cc(OC)ccc3c2)n1 [Compound 138, 2-((2-hydroxyethyl)amino)-N-(7-methoxy-3-(2-(methylamino)pyrimidin-4-yl)naphthalen-1-yl)acetamide] | 169 to 172
17 | COc1cccc(CCNc2nccc(-c3cc(N4CCN(c5ncnc6[nH]nc(Br)c56)CC4)c4cc(OC)ccc4c3)n2)c1 [Compound 180, 4-{4-[4-(3-bromo-1H-pyrazolo[3,4-d]pyrimidin-4-yl)piperazin-1-yl]-6-methoxy-2-naphthyl}-N-[2-(3-methoxyphenyl)ethyl]pyrimidin-2-amine] | 200 to 203
18 | COc1cccc(CNc2nccc(-c3cc(N4CCN(CCCN5CCC5)CC4)c4cc(OC)ccc4c3)n2)c1 (as salt: hydrochloride) [Compound 200, 4-(4-(4-(3-(azetidin-1-yl)propyl)piperazin-1-yl)-6-methoxynaphthalen-2-yl)-N-(3-methoxybenzyl)pyrimidin-2-amine] | 122 to 130
19 | COc1cccc(CNc2nccc(-c3cc(N4CCN(CCCN(C)C5CCCCC5)CC4)c4cc(OC)ccc4c3)n2)c1 (as salt: hydrochloride) [Compound 202, 4-(4-(4-(3-(cyclohexyl(methyl)amino)propyl)piperazin-1-yl)-6-methoxynaphthalen-2-yl)-N-(3-methoxybenzyl)pyrimidin-2-amine] | 155 to 161
20 | CNc1nccc(-c2cc(NCCCNCCCOC)c3cc(OC)ccc3c2)n1 (as salt: HCl) [Compound 190, N-{7-methoxy-3-[2-(methylamino)pyrimidin-4-yl]-1-naphthyl}-N′-(3-methoxypropyl)propane-1,3-diamine] | 130 to 132
21 | COc1ccc2cc(-c3ccnc(NCCc4ccc(OC)c(OC)c4)n3)cc(N3CCN(c4ncnc5[nH]nc(Br)c45)CC3)c2c1 [Compound 179, 4-{4-[4-(3-bromo-1H-pyrazolo[3,4-d]pyrimidin-4-yl)piperazin-1-yl]-6-methoxy-2-naphthyl}-N-[2-(3,4-dimethoxyphenyl)ethyl]pyrimidin-2-amine] | 130 to 133
22 | COc1cccc(CCNc2nccc(-c3cc(N4CCNCC4)c4cc(OC)ccc4c3)n2)c1 [Compound 115, N-[2-(3-methoxyphenyl)ethyl]-4-(6-methoxy-4-piperazin-1-yl-2-naphthyl)pyrimidin-2-amine] | 142 to 144
23 | COc1cccc(CNc2nccc(-c3cc(N4CCN(CCCN5CCOCC5)CC4)c4cc(OC)ccc4c3)n2)c1 [Compound 196, 4-(6-methoxy-4-(4-(3-morpholinopropyl)piperazin-1-yl)naphthalen-2-yl)-N-(3-methoxybenzyl)pyrimidin-2-amine] | 65 to 73
24 | CNc1nccc(-c2cc(NCCCNc3ncnc4[nH]nc(Br)c34)c3cc(OC)ccc3c2)n1 [Compound 183, N1-(3-bromo-1H-pyrazolo[3,4-d]pyrimidin-4-yl)-N3-(7-methoxy-3-(2-(methylamino)pyrimidin-4-yl)naphthalen-1-yl)propane-1,3-diamine] | 145 to 148
25 | COc1cccc(CNc2nccc(-c3cc(N4CCN(CCCN5CCCC5)CC4)c4cc(OC)ccc4c3)n2)c1 (as salt: hydrochloride) [Compound 198, 4-(6-methoxy-4-(4-(3-(pyrrolidin-1-yl)propyl)piperazin-1-yl)naphthalen-2-yl)-N-(3-methoxybenzyl)pyrimidin-2-amine] | 160 to 167
26 | CCCN(C)CCCN1CCN(c2cc(-c3ccnc(NCc4cccc(OC)c4)n3)cc3ccc(OC)cc23)CC1 (as salt: hydrochloride) [Compound 199, 4-(6-methoxy-4-(4-(3-(methyl(propyl)amino)propyl)piperazin-1-yl)naphthalen-2-yl)-N-(3-methoxybenzyl)pyrimidin-2-amine] | 156 to 160
27 | COc1ccc2cc(-c3ccnc(NCCc4ccc(OC)c(OC)c4)n3)cc(N3CCNCC3)c2c1 (as salt: HCl) [Compound 110, N-(3,4-dimethoxyphenethyl)-4-(6-methoxy-4-(piperazin-1-yl)naphthalen-2-yl)pyrimidin-2-amine] | 138 to 140
28 | CNc1nccc(-c2cc(NC(=O)c3ccc(C(F)(F)F)cc3)c3cc(OC)ccc3c2)n1 [Compound 187, N-{7-methoxy-3-[2-(methylamino)pyrimidin-4-yl]-1-naphthyl}-4-(trifluoromethyl)benzamide] | 227 to 229
29 | COc1cccc(CNc2nccc(-c3cc(N4CCN(CCCN(C)C)CC4)c4cc(OC)ccc4c3)n2)c1 [Compound 195, 4-(4-(4-(3-(dimethylamino)propyl)piperazin-1-yl)-6-methoxynaphthalen-2-yl)-N-(3-methoxybenzyl)pyrimidin-2-amine] | 70 to 75

tested on: DLD-1; experiment: MTS assay, DLD-1; assay type: cell-based; settings: Homo sapiens, 72 hours, 1 Percent FBS

Row | SMILES | inhibition at 10 µM [%]
30 | COc1ccc2cc(-c3ccnc(NC4CCN(Cc5ccccc5)CC4)n3)cc(N3CCOCC3)c2c1 [Compound 24, N-(1-benzylpiperidin-4-yl)-4-(6-methoxy-4-morpholin-4-yl-2-naphthyl)pyrimidin-2-amine] | 97
31 | COc1ccc2cc(-c3ccnc(NCc4cccnc4)n3)cc(N3CCNCC3)c2c1 [Compound 130, 4-(6-methoxy-4-piperazin-1-yl-2-naphthyl)-N-(pyridin-3-ylmethyl)pyrimidin-2-amine] | 97
32 | CNc1nccc(-c2cc(NC(=O)CN3CCN(C4CCN(C)CC4)CC3)c3cc(OC)ccc3c2)n1 [Compound 83, N-{7-methoxy-3-[2-(methylamino)pyrimidin-4-yl]-1-naphthyl}-2-[4-(1-methylpiperidin-4-yl)piperazin-1-yl]acetamide] | 99

tested on: MDA-MB-231; experiment: MTS assay, MDA-MB-231; assay type: cell-based; settings: Homo sapiens, 72 hours, 1 Percent FBS

Row | SMILES | inhibition at 10 µM [%]
33 | COc1ccc2cc(-c3ccnc(NC4CCN(Cc5ccccc5)CC4)n3)cc(N3CCOCC3)c2c1 [Compound 24, N-(1-benzylpiperidin-4-yl)-4-(6-methoxy-4-morpholin-4-yl-2-naphthyl)pyrimidin-2-amine] | 95
34 | COc1ccc2cc(-c3ccnc(NCc4cccnc4)n3)cc(N3CCNCC3)c2c1 [Compound 130, 4-(6-methoxy-4-piperazin-1-yl-2-naphthyl)-N-(pyridin-3-ylmethyl)pyrimidin-2-amine] | 76
35 | CNc1nccc(-c2cc(NC(=O)CN3CCN(C4CCN(C)CC4)CC3)c3cc(OC)ccc3c2)n1 [Compound 83, N-{7-methoxy-3-[2-(methylamino)pyrimidin-4-yl]-1-naphthyl}-2-[4-(1-methylpiperidin-4-yl)piperazin-1-yl]acetamide] | 99
